In patent publication US20220313698A1, “MODULATORS OF CYSTIC FIBROSIS TRANSMEMBRANE CONDUCTANCE REGULATOR” (Vertex Pharmaceuticals Incorporated, priority 2019, published 2022):

What was measured:
[1] = target: T1, CFTR-mediated chloride transport (Homo sapiens, UniProt P13569); experiment: Corrector Assay B - membrane potential dye assay (enteroid cells); conditions: for Corrector Assay B % activity: % of chloride transport of triple combination control (3 μM Compound A + 3 μM tezacaftor + 300 nM ivacaftor); for EC50: read-out: Corrector Assay B EC50, human intestinal enteroid cells, 18-24 h incubation, acute 10 μM forskolin + 300 nM ivacaftor;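 on all read-outs here: methyl oxonol membrane potential fluorescence followed over 15 min after switching to chloride-free buffer with forskolin, 100 µM IBMX and ivacaftor, in presence of CaCC blockers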
Description: Base medium (ADF+++) consisted of Advanced DMEM/Ham's F12, 2 mM Glutamax, 10 mM HEPES, 1 μg/ml penicillin/streptomycin.
Intestinal enteroid maintenance medium (IEMM) consisted of ADF+++, 1×B27 supplement, 1×N2 supplement, 1.25 mM N-acetyl cysteine, 10 mM Nicotinamide, 50 ng/mL hEGF, 10 nM Gastrin, 1 μg/mL hR-spondin-1, 100 ng/mL hNoggin, TGF-b type 1 inhibitor A-83-01, 100 μg/mL Primocin, 10 μM P38 MAPK inhibitor SB202190.
Bath 1 Buffer consisted of 1 mM MgCl2, 160 mM NaCl, 4.5 mM KCl, 10 mM HEPES, 10 mM Glucose, 2 mM CaCl2).
Chloride Free Buffer consisted of 1 mM Magnesium Gluconate, 2 mM Calcium Gluconate, 4.5 mM Potassium Gluconate, 160 mM Sodium Gluconate, 10 mM HEPES, 10 mM Glucose.
Bath 1 Dye Solution consisted of Bath 1 Buffer, 0.04% Pluronic F127, 20 μM Methyl Oxonol, 30 μM CaCCinh-A01, 30 μM Chicago Sky Blue.
Chloride Free Dye Solution consisted of Chloride Free Buffer, 0.04% Pluronic F127, 20 μM Methyl Oxonol, 30 μM CaCCinh-A01, 30 μM Chicago Sky Blue.
Chloride Free Dye Stimulation Solution consisted of Chloride Free Dye Solution, 10 μM forskolin, 100 μM IBMX, and 300 nM Ivacaftor.
Cells were recovered in cell recovery solution, collected by centrifugation at 650 rpm for 5 min at 4° C., resuspended in TryPLE and incubated for 5 min at 37° C. Cells were then collected by centrifugation at 650 rpm for 5 min at 4° C. and resuspended in IEMM containing 10 μM ROCK inhibitor (RI). The cell suspension was passed through a 40 μm cell strainer and resuspended at 1×10^6 cells/mL in IEMM containing 10 μM RI. Cells were seeded at 5000 cells/well into multi-well plates and incubated for overnight at 37° C., 95% humidity and 5% CO2 prior to assay.
Briefly, cells were washed 5 times in Bath 1 Buffer. Bath 1 Dye Solution was added and the cells were incubated for 25 min at room temperature. Following dye incubation, cells were washed 3 times in Chloride Free Dye Solution. Chloride transport was initiated by addition of Chloride Free Dye Stimulation Solution and the fluorescence signal was read for 15 min. The CFTR-mediated chloride transport for each condition was determined from the AUC of the fluorescence response to acute forskolin and 300 nM N-[2,4-bis(1,1-dimethylethyl)-5-hydroxyphenyl]-1,4-dihydro-4-oxoquinoline-3-carboxamide stimulation. Chloride transport was then expressed as a percentage of the chloride transport following treatment with 3 μM Compound A, 3 μM (R)-1-(2,2-difluorobenzo[d][1,3]dioxol-5-yl)-N-(1-(2,3-dihydroxypropyl)-6-fluoro-2-(1-hydroxy-2-methylpropan-2-yl)-1H-indol-5-yl)cyclopropanecarboxamide and 300 nM acute N-[2,4-bis(1,1-dimethylethyl)-5-hydroxyphenyl]-1,4-dihydro-4-oxoquinoline-3-carboxamide triple combination control (% Activity).

[2] = target: T1, CFTR-mediated chloride transport; experiment: Corrector Assay A - membrane potential dye assay (enteroid cells); conditions: for Corrector Assay A % activity: % of chloride transport of triple combination control (1 μM (14S)-dispiro macrocycle + 3 μM tezacaftor + 300 nM ivacaftor); for EC50: read-out: Corrector Assay A EC50, human intestinal enteroid cells, 18-24 h incubation, acute 10 μM forskolin + 300 nM ivacaftor

Compound	Corrector Assay B % activity [1]	EC50 [1] [µM]	Corrector Assay A % activity [2]	EC50 [2] [µM]
CC(C)(C)c1ccc2c(n1)N1C[C@@H](CCC(c3ccccn3)Nc3cccc(n3)S(=O)(=O)NC2=O)CC1(C)C (single isomer, unassigned) [Compound 292]	+++ (+++ is >60%)	< 1	+++ (+++ is >60%)	< 1
CC(C)(C)c1ccc2c(n1)N1C[C@@H](CCC(c3ccccn3)Nc3cccc(n3)S(=O)(=O)NC2=O)CC1(C)C (single isomer, unassigned) [Compound 293]	+++ (+++ is >60%)	< 1	++ (++ is 30-60%)	< 1
CC(C)(C)c1ccc2c(n1)N1C[C@@H](CC[C@@H](c3ccccc3)Nc3cccc(n3)S(=O)(=O)NC2=O)CC1(C)C (single isomer, unassigned) [Compound 294]	+++ (+++ is >60%)	< 1	+++ (+++ is >60%)	< 1
CC(C)(C)c1ccc2c(n1)N1C[C@@H](CC[C@@H](c3ccccc3)Nc3cccc(n3)S(=O)(=O)NC2=O)CC1(C)C (single isomer, unassigned) [Compound 295]	+++ (+++ is >60%)	< 1	++ (++ is 30-60%)	< 1
CC(C)(C)c1ccc2c(n1)N1C[C@@H](CCC(c3cncnc3)Nc3cccc(n3)S(=O)(=O)NC2=O)CC1(C)C (single isomer, unassigned) [Compound 297]	+++ (+++ is >60%)	< 1	+++ (+++ is >60%)	< 1
CC1(C)C[C@@H]2CCC(c3ccccn3)Nc3cccc(n3)S(=O)(=O)NC(=O)c3ccc(-n4ccc(OCCC5(C(F)(F)F)CC5)n4)nc3N1C2 (single isomer, unassigned) [Compound 361]	+++ (+++ is >60%)	< 1	+++ (+++ is >60%)	< 1
CC1(C)C[C@@H]2CCC(c3ccccn3)Nc3cccc(n3)S(=O)(=O)NC(=O)c3ccc(-n4ccc(OCCC5(C(F)(F)F)CC5)n4)nc3N1C2 (single isomer, unassigned) [Compound 362]	+++ (+++ is >60%)		+++ (+++ is >60%)	< 1
CC1(C)C[C@@H]2CCC(c3ccccc3)Nc3cccc(n3)S(=O)(=O)NC(=O)c3ccc(-n4ccc(OCCC5C6(CC6)C56CC6)n4)nc3N1C2 (single isomer, unassigned) [Compound 363]	+++ (+++ is >60%)	< 1	+++ (+++ is >60%)	< 1
CC1(C)C[C@@H]2CCC(c3ccccc3)Nc3cccc(n3)S(=O)(=O)NC(=O)c3ccc(-n4ccc(OCCC5C6(CC6)C56CC6)n4)nc3N1C2 (single isomer, unassigned) [Compound 364]	+++ (+++ is >60%)		+++ (+++ is >60%)	< 1
CCCC1(C)CC2CCCNc3cccc(n3)S(=O)(=O)NC(=O)c3ccc(-n4ccc(OCCC5(C(F)(F)F)CC5)n4)nc3N1C2 (single isomer, unassigned) [Compound 367, 12-methyl-12-propyl-8-(3-{2-[1-(trifluoromethyl)cyclopropyl]ethoxy}-1H-pyrazol-1-yl)-2λ^6-thia-3,9,11,18,23-pentaazatetracyclo[17.3.1.111,14.05,10]tetracosa-1(22),5,7,9,19(23),20-hexaene-2,2,4-trione]	++ (++ is 30-60%)	< 1	+++ (+++ is >60%)	< 1
CC1(C)C[C@@H]2CCC(c3ccc(C(=O)O)cc3)Nc3cccc(n3)S(=O)(=O)NC(=O)c3ccc(-n4ccc(OCCC5(C(F)(F)F)CC5)n4)nc3N1C2 (single isomer, unassigned) [Compound 370]	+++ (+++ is >60%)	1 to 3		
CC1(C)C[C@@H]2CCC(c3ccc(C(=O)O)cc3)Nc3cccc(n3)S(=O)(=O)NC(=O)c3ccc(-n4ccc(OCCC5(C(F)(F)F)CC5)n4)nc3N1C2 (single isomer, unassigned) [Compound 371]	+++ (+++ is >60%)	< 1		
CC1(C)C[C@@H]2CCC(c3cncnc3)Nc3cccc(n3)S(=O)(=O)NC(=O)c3ccc(-n4ccc(OCCC5(C(F)(F)F)CC5)n4)nc3N1C2 (single isomer, unassigned) [Compound 374]	+++ (+++ is >60%)	< 1		
CC1(C)C[C@@H]2CCC(c3cncnc3)Nc3cccc(n3)S(=O)(=O)NC(=O)c3ccc(-n4ccc(OCCC5(C(F)(F)F)CC5)n4)nc3N1C2 (single isomer, unassigned) [Compound 375]	+++ (+++ is >60%)	< 1		
CC1(C)C[C@@H]2CCCN(C[C@@H](O)CO)c3cccc(n3)S(=O)(=O)NC(=O)c3ccc(-n4ccc(OCCC5(C(F)(F)F)CC5)n4)nc3N1C2 (single isomer, unassigned) [Compound 379]	+++ (+++ is >60%)	< 1		
CC1(C)C[C@@H]2CCCN(C[C@H](O)CO)c3cccc(n3)S(=O)(=O)NC(=O)c3ccc(-n4ccc(OCCC5(C(F)(F)F)CC5)n4)nc3N1C2 (single isomer, unassigned) [Compound 381]	+++ (+++ is >60%)	< 1		
CC1(C)CC2CCC(c3ccccc3)Nc3cccc(n3)S(=O)(=O)NC(=O)c3ccc(-n4ccc(OCCC5(C(F)(F)F)CC5)n4)nc3N1C2 (single isomer, unassigned) [Compound 383, 12,12-Dimethyl-17-phenyl-8-(3-{2-[1-(trifluoromethyl)cyclopropyl]ethoxy}-1H-pyrazol-1-yl)-2λ^6-thia-3,9,11,18,23-pentaazatetracyclo[17.3.1.111,14.05,10]tetracosa-1(22),5,7,9,19(23),20-hexaene-2,2,4-trione]	+++ (+++ is >60%)	< 1	++ (++ is 30-60%)	< 1
CC1(C)CC2CN1c1nc(-n3ccc(OCCC4(C(F)(F)F)CC4)n3)ccc1C(=O)NS(=O)(=O)c1cccc(n1)NCCC2c1ccccc1 (single isomer, unassigned) [Compound 386, 12,12-Dimethyl-15-phenyl-8-(3-{2-[1-(trifluoromethyl)cyclopropyl]ethoxy}-1H-pyrazol-1-yl)-2λ^6-thia-3,9,11,18,23-pentaazatetracyclo[17.3.1.111,14.05,10]tetracosa-1(22),5,7,9,19(23),20-hexaene-2,2,4-trione]	++ (++ is 30-60%)	< 1		
CC1(C)CC2CC(c3ccccc3)CNc3cccc(n3)S(=O)(=O)NC(=O)c3ccc(-n4ccc(OCCC5(C(F)(F)F)CC5)n4)nc3N1C2 (single isomer, unassigned) [Compound 390, 12,12-dimethyl-16-phenyl-8-(3-{2-[1-(trifluoromethyl)cyclopropyl]ethoxy}-1H-pyrazol-1-yl)-2λ^6-thia-3,9,11,18,23-pentaazatetracyclo[17.3.1.111,14.05,10]tetracosa-1(22),5,7,9,19(23),20-hexaene-2,2,4-trione]	+++ (+++ is >60%)	< 1		
CC1(C)CC2CC(c3ccccc3)CNc3cccc(n3)S(=O)(=O)NC(=O)c3ccc(-n4ccc(OCCC5(C(F)(F)F)CC5)n4)nc3N1C2 (single isomer, unassigned) [Compound 392, 12,12-dimethyl-16-phenyl-8-(3-{2-[1-(trifluoromethyl)cyclopropyl]ethoxy}-1H-pyrazol-1-yl)-2λ^6-thia-3,9,11,18,23-pentaazatetracyclo[17.3.1.111,14.05,10]tetracosa-1(22),5,7,9,19(23),20-hexaene-2,2,4-trione]	++ (++ is 30-60%)	< 1		
CC1(C)C[C@@H]2CCCN(CC3COC3)c3cccc(n3)S(=O)(=O)NC(=O)c3ccc(-n4ccc(OCCC5(C(F)(F)F)CC5)n4)nc3N1C2 [Compound 359]	+++ (+++ is >60%)	< 1		
CC1(C)C[C@@H]2CCCN(CCCCCC#N)c3cccc(n3)S(=O)(=O)NC(=O)c3ccc(-n4ccc(OCCC5(C(F)(F)F)CC5)n4)nc3N1C2 [Compound 369]	++ (++ is 30-60%)	< 1		
Cn1cnnc1CN1CCC[C@@H]2CN(c3nc(-n4ccc(OCCC5(C(F)(F)F)CC5)n4)ccc3C(=O)NS(=O)(=O)c3cccc1n3)C(C)(C)C2 [Compound 373]	++ (++ is 30-60%)	< 1		
CN(C)C(=O)CN1CCC[C@@H]2CN(c3nc(-n4ccc(OCCC5(C(F)(F)F)CC5)n4)ccc3C(=O)NS(=O)(=O)c3cccc1n3)C(C)(C)C2 [Compound 376]	++ (++ is 30-60%)	< 1		
CC1(C)C[C@@H]2CCCN(CCC#N)c3cccc(n3)S(=O)(=O)NC(=O)c3ccc(-n4ccc(OCCC5(C(F)(F)F)CC5)n4)nc3N1C2 [Compound 377]	+++ (+++ is >60%)	< 1		
CC1(C)C[C@@H]2CCCN(CCC(N)=O)c3cccc(n3)S(=O)(=O)NC(=O)c3ccc(-n4ccc(OCCC5(C(F)(F)F)CC5)n4)nc3N1C2 [Compound 378, 3-[(14S)-12,12-Dimethyl-2,2,4-trioxo-8-(3-{2-[1-(trifluoromethyl)cyclopropyl]ethoxy}-1H-pyrazol-1-yl)-2λ^6-thia-3,9,11,18,23-pentaazatetracyclo[17.3.1.111,14.05,10]tetracosa-1(23),5(10),6,8,19,21-hexaen-18-yl]propanamide]	+++ (+++ is >60%)	< 1		
